Source: ChEMBL document CHEMBL5380835, “Discovery of Clinically Used Octenidine as NRAS Repressor That Effectively Inhibits NRAS-Mutant Melanoma” (J Med Chem, 2023)
Calls of active or inactive are those of the source. No cut-off for these calls is given here.

What was measured:
SK-MEL-2 [1] = test: Antitumor activity against human SK-MEL-2 cells xenografted in BALB/c nude mouse assessed as tumor growth inhibition at 5 mg/kg/day, ip by electronic caliper method; format: functional, organism-based; conditions: time 30.0 day, TDE = time-dependent effect
SK-MEL-2 [2] = test: Synergistic cytotoxicity against human SK-MEL-2 cells expressing NRAS mutant assessed as combination index measured for 48 hrs in presence of MK2206 by MTT assay; format: functional
SK-MEL-2 [3] = test: Synergistic cytotoxicity against human SK-MEL-2 cells expressing NRAS mutant assessed as combination index measured for 48 hrs in presence of Rapamycin by MTT assay; format: functional
SK-MEL-2 [4] = test: Antiproliferative activity against human SK-MEL-2 cells assessed as inhibition of colony formation at 1.5 uM measured after 10 days by crystal violet staining based assay; format: functional, cell-based; conditions: time 10.0 day
SK-MEL-2 [5] = test: Antitumor activity against human SK-MEL-2 cells xenografted in BALB/c nude mouse assessed as reduction in tumor weight at 5 mg/kg/day, ip administered for 30 days by electronic caliper method; format: functional, organism-based; conditions: time 30.0 day
SK-MEL-2 [6] = test: Antitumor activity against human SK-MEL-2 cells xenografted in BALB/c nude mouse assessed as T/C ratio at 5 mg/kg/day, ip administered for 30 days relative to control; format: functional; conditions: time 30 day
SK-MEL-2 [7] = test: Antitumor activity against human SK-MEL-2 cells xenografted in BALB/c nude mouse assessed as tumor growth inhibition at 5 mg/kg/day, ip administered for 30 days relative to control; format: functional; conditions: SK-MEL-2, 720 h, time 30 day, read-out: TGI

Cn1cnc2c(F)c(Nc3ccc(Br)cc3F)c(C(=O)NOCCO)cc21 [BINIMETINIB]
Activity (SK-MEL-2 [1]): Tde
CI (SK-MEL-2 [2]): 0.5
CI (SK-MEL-2 [3]): 0.5
inhibition (SK-MEL-2 [4]): Active
Activity (SK-MEL-2 [5]): Active
T/C (SK-MEL-2 [6]): 24.8%
inhibition in vivo at 5 mg/kg/day (SK-MEL-2 [7]): 70.4%
